Data from patent US5824683A, “2'-[[4'-h alo-[1,1'-biphenyl]-4-yl]methyl]-5'-methyl-spiro[cyclopentane-1,7' (8'H)-[3H] imidazo[2,1-b]purin]-4' (5'H)-ones” (Schering Corporation, priority 1996, dated 1998).

Tests used:
[1] = target: T1, PDE Type I (calcium-calmodulin dependent phosphodiesterase, CaM-PDE) (Bos taurus, UniProt P14100); experiment: Phosphodiesterase inhibition in vitro, Type I (calcium-calmodulin dependent phosphodiesterase, CaM-PDE); type: biochemical; settings: CaM-PDE from bovine aorta; 1 μM 3H-cGMP substrate; pH 7.5; 25 minutes, room temperature
T1 construct: from tissue; host or cells: bovine aorta

[2] = target: T2, PDE Type V (cGMP phosphodiesterase, cGMP-PDE) (Bos taurus, UniProt Q28156); experiment: Phosphodiesterase inhibition in vitro, Type V (cGMP phosphodiesterase, cGMP-PDE); type: biochemical; settings: cGMP-PDE from bovine lung; 1 μM 3H-cGMP substrate; pH 7.5; 25 minutes, room temperature
T2 construct: homogeneous enzyme obtained from bovine lung and purified by ion-exchange chromatography, gel filtration, and sucrose gradient centrifugation; from tissue; host or cells: bovine lung

[3] = system: spontaneously hypertensive rats (SHR); experiment: Antihypertensive activity in conscious spontaneously hypertensive rats (SHR); type: in vivo, rat; settings: 10 mpk po, fasted overnight, mean blood pressure
Method: The ability of the compounds of the present invention to lower blood pressure can be assessed in vivo in conscious spontaneously hypertensive rats (SHR). SHR males are purchased from Taconic Farms, Germantown New York and are approximately 16-18 weeks old when anesthetized with ether. The caudal (ventral tail) artery is cannulated with polyethylene tubing (PESO) and blood pressure and heart rate are recorded as described by Baum, T. et. al, J. Cardiovasc. Pharmacol. Vol 5, pp. 655-667, (1983). Rats are placed into plastic cylindrical cages where they rapidly recover consciousness. Blood pressure and heart rate are allowed to stabilize for approximately 90 minutes prior to compound administration. Compounds are administered orally as solutions or suspensions in 0.4% aqueous methylcellulose vehicle via a feeding needle. The compound or 0.4% aqueous methylcellulose vehicle are given in a volume of 4 ml/kg to SHRs that had been fasted overnight. Activity is expressed as the fall in mean blood pressure (MBP) in millimeters of mercury (mm Hg). Compound-induced changes are compared with the changes in an appropriate placebo group.

[4] = Plasma levels in SHR after oral dosing; type: in vivo; settings: rat, 10 mg/kg, 10 mpk orally, sampled 0.5, 1, 2, 3 and 4 hours, read-out: Plasma Level AUC
Method: SHRs dosed orally with test compound at 10 mpk and plasma levels were subsequently measured at intervals of 0.5, 1, 2, 3 and 4 hours. Plasma levels (μg/ml) were plotted versus hours post dosing and the area under the curve (AUC, μghr/ml) was calculated.

With `CN1C(=O)c2[nH]c(Cc3ccc(-c4ccc(F)cc4)cc3)nc2N2CC3(CCCC3)N=C12` [Example 3] as the molecule, how does the IC50 [1] read?
Its IC50 is 9 nM.

What about the IC50 [2] of the same molecule?
The IC50 was 520 nM.

What about the “SHR Antihypertensive: Fall in MBP” value [3] of the same molecule?
The value was -35 mmHg.

And the AUC at 4 h [4]?
The AUC at 4 h was 7730 ng·h/mL.

For `COc1ccc(-c2ccc(Cc3nc4c([nH]3)C(=O)N(C)C3=NC5(CCCC5)CN34)cc2)cc1` [Ref. Cpd., 2'-[[(4'-methoxy-1,1'-biphenyl) -4-yl]methyl]-5'-methyl-spiro[cyclopentane-1,7'(8'H)-[3H]imidazo-[2,1-b]purin]-4'(5'H)-one, reference compound], which IC50 [1] is on record?
The IC50 was 5 nM.

What about the IC50 [2] of the same molecule?
The IC50 was 500 nM.

What about the “SHR Antihypertensive: Fall in MBP” value [3] of the same molecule?
Its value is -35 mmHg.

And the AUC at 4 h [4]?
The AUC at 4 h was 3340 ng·h/mL.

For `CN1C(=O)c2[nH]c(Cc3ccc(-c4ccc(Cl)cc4)cc3)nc2N2CC3(CCCC3)N=C12` [Example 1], which IC50 [1] is on record?
The IC50 was 11 nM.

What about the IC50 [2] of the same molecule?
The IC50 was 170 nM.

What about the “SHR Antihypertensive: Fall in MBP” value [3] of the same molecule?
Its value is -24 mmHg.

And the AUC at 4 h [4]?
Its AUC at 4 h is 4800 ng·h/mL.

For `CN1C(=O)c2[nH]c(Cc3ccc(-c4ccc(Br)cc4)cc3)nc2N2CC3(CCCC3)N=C12` [Example 2], which IC50 [1] is on record?
The IC50 was 12 nM.

What about the IC50 [2] of the same molecule?
The IC50 was 210 nM.

What about the “SHR Antihypertensive: Fall in MBP” value [3] of the same molecule?
The value was -11 mmHg.

What about the AUC at 4 h [4] of the same molecule?
Its AUC at 4 h is 5890 ng·h/mL.
